# According to a melting point compilation (Tetko et al.):
row,SMILES,melting point [°C]
1,O=C(O)c1cccc(NS(=O)(=O)c2ccc(Cl)c(Cl)c2)c1,254 to 256
2,COc1ccc(C(=O)O)cc1S(=O)(=O)NC(C)C,194 to 197
3,CC(C)(C)OC(=O)Nc1cc(C(=O)O)ccc1F,177 to 179
4,O=C(CCl)Nc1ccc(F)c(F)c1,106 to 108
5,N#CCc1nc2cc(Cl)ccc2s1,155 to 157
6,COc1ccc(/C=C/C(=O)O)cc1S(=O)(=O)N(C)C,229 to 231
7,O=Cc1sc(N2CCCC2)nc1Cl,119 to 121
8,Cc1cc(Br)cc2ccc(=O)[nH]c12,278 to 280
9,CC(C)(C)OC(=O)NC1CC1,62 to 64
10,O=C(O)C1CC1c1ccc2c(c1)OCCO2 (stereo not drawn),160 to 162
11,O=C(O)C=Cc1cccc(OC2CCCCC2)c1,96 to 98
12,O=C(CCl)NC1CCN(Cc2ccccc2)CC1,117 to 119
13,CCC(=O)c1ccc2c(c1)CC(=O)N2C,205 to 207
14,CC(Cl)C(=O)N1CC(=O)Nc2ccccc21 (stereo not drawn),139 to 141
15,O=C(O)c1cccc(S)c1,144 to 147
16,CC(C)(C)OC(=O)NCC#N,53 to 57
17,COc1ccc(C(=O)CCl)cc1Br,85 to 87
18,Cc1cc(C(=O)CCl)c(C)n1C(C)C,45 to 47
19,Cc1ccc(C=O)nc1,39 to 41
20,N#CCc1nc2cc(C(F)(F)F)ccc2s1,95 to 97
21,CC1CC(C)CN(S(=O)(=O)c2ccc(C(=O)O)cc2)C1 (stereo not drawn),275 to 277
22,Cc1cc(Cl)nc(-c2cccc([N+](=O)[O-])c2)n1,147 to 149
23,Cc1ccc(Sc2ccc(Cl)cc2N)c(C)c1,86 to 88
24,Nc1cccc(NC(=O)c2ccoc2)c1,120 to 122
25,Cc1cccc(N2CCN(Cc3ccc(N)cc3)CC2)c1,103 to 105
26,Cc1cc(-c2csc(N)n2)c(F)cc1F,219 to 221
27,O=C(O)c1ccc(N2CCCCC2=O)cc1,213 to 215
28,Nc1nonc1I,90 to 92

row,SMILES,melting point [°C]
1,O=C(O)C1CCCN(S(=O)(=O)c2ccc(Cl)cc2)C1 (stereo not drawn),202 to 204
2,Cn1cc(N2CCCC(Br)C2=O)cn1 (stereo not drawn),121 to 123
3,COc1cc(CC#N)ccc1SC(F)(F)F,59 to 61
4,CN1C(=O)CCC(C(N)=O)C1c1cccs1 (stereo not drawn),179 to 181
5,COc1ccc(O)c(C(C)(C)C)c1,61 to 63
6,Cc1cccc2ncc(C=O)n12,128 to 130
7,O=C1Nc2cc(N3CCCC3)ccc2C1=O,293 to 295
8,Nc1nc(-c2cccc(Br)c2)cs1,121 to 125
9,O=C1CCN(C(=O)c2ccccc2Cl)CC1,107 to 109
10,O=C(O)c1ccc(COc2ccc(Cl)cc2)cc1,201 to 203
11,NCC(c1ccc(Cl)cc1Cl)c1c[nH]c2ccccc12 (stereo not drawn),130 to 132
12,Cc1ccccc1-n1ncc(C(=O)O)c1N,159 to 161
13,Cc1c(C(=O)O)cnn1C1CCCCC1,143 to 145
14,Nc1cc(Cl)cc([N+](=O)[O-])c1O,152 to 154
15,CSCCC(NC(=O)Cc1ccccc1)C(=O)O (stereo not drawn),101 to 103
16,O=C(CCl)Nc1ccc(OCc2ccccc2)cc1,118 to 120
17,CC(Br)c1cccc2ccccc12 (stereo not drawn),36 to 38
18,CCOC(=O)/C(C#N)=C/Nc1ccccc1OCC,141 to 143
19,Cc1ccccc1N1C(=O)c2ccc(C(=O)O)cc2C1=O,234 to 236
20,CCn1ncc(C(=O)O)c1C(F)(F)F,136 to 138
21,CC(=O)c1ccc(S(C)=O)cc1 (stereo not drawn),105 to 107
22,COc1ccc(C(=O)CSc2nc(C)n[nH]2)cc1Br,158 to 160
23,O=C(O)C(=O)NCc1ccc(F)cc1,134 to 136
24,NC(=O)c1cc(N)ccc1Cl,153 to 155
25,Cc1cc(C)c2c(C)c(C(=O)O)sc2n1,278 to 280
26,CNS(=O)(=O)c1ccc(N)cc1,110 to 112
27,COc1nc(N2CCNCC2)ncc1Br,89 to 91

# Next, values leading:
row,melting point [°C],SMILES
1,45 to 47,CCC(C)C(O)C(=O)O (stereo not drawn)
2,55 to 57,COCCn1nnc(C(=O)O)c1C(F)(F)F
3,108 to 110,O=C(O)CCc1ccc(F)cc1F
4,161 to 163,Cc1noc(N)n1
5,180 to 182,O=S(=O)(c1ccc(F)cc1)N1CCCNCC1
6,112 to 114,N#Cc1cccc(COc2ccc(N)cc2Cl)c1
7,167 to 169,Cc1cc(=O)n2nc(Br)sc2n1
8,78 to 82,Cc1cc(C(=O)C(C)Cl)c(C)n1-c1ccccc1 (stereo not drawn)
9,116 to 118,O=C(O)C1CCCCN1C(=O)C1CCCO1 (stereo not drawn)
10,309 to 311,CC(C)c1cc(C(=O)O)cc(O)n1
11,128 to 130,Cc1ccc(N)cc1N1CCCS1(=O)=O
12,104 to 106,c1cc(-n2ccnc2)ccn1
13,63 to 65,COCc1ccc(C(=O)O)o1
14,114 to 116,FC(F)(F)c1cc(Cl)nc(-c2cccnc2)n1
15,114 to 116,O=S1(=O)CCC(S(=O)(=O)Cl)C1 (stereo not drawn)
16,94 to 96,CCOC(=O)c1nc(-c2ccccc2)oc1CBr
17,179 to 181,O=C(NCc1ccncc1)c1ccc(O)c(Cl)c1
18,125 to 127,Cc1cc(NC(=O)C(C)SCC(=O)O)no1 (stereo not drawn)
19,134 to 136,Cc1noc(C(F)F)c1C(=O)O
20,155 to 157,COc1cccc(C(N)=O)c1O
21,119 to 123,O=S1(=O)CCC(Nc2ccccc2)C1 (stereo not drawn)
22,130 to 132,O=C(O)CCCOc1ccc(Br)cc1
23,281 to 283,Cc1c(C(=O)O)sc2nc3n(c(=O)c12)CCC3
24,211 to 213,O=C(O)c1ccc(CCC(F)(F)F)cc1

row,melting point [°C],SMILES
1,50 to 52,CC(=O)c1cc([N+](=O)[O-])ccc1C
2,212 to 214,CC(C)(C)NS(=O)(=O)c1cc(C(=O)O)ccc1Cl
3,206 to 208,ON=Cc1nc2cc(Cl)ccc2o1
4,93 to 95,NNc1ccc(S(=O)(=O)C(F)(F)F)cc1
5,137 to 139,CS(=O)(=O)N1CCc2cc(C(=O)CCl)ccc21
6,87 to 89,ClCc1cn(-c2ccccc2)nc1-c1ccccc1
7,199 to 201,Cc1cc(S(C)(=O)=O)cc(C(=O)O)c1C
8,152 to 154,COc1ccc(S(=O)(=O)N(C)C)cc1NC(=O)CCl
9,128 to 130,O=Cc1c(-c2ccccc2)nc2sccn12
10,160 to 162,O=C1C=CC(=O)N1c1ccc(F)cc1
11,167 to 169,CC1(C)NC(=O)N(CC(=O)O)C1=O
12,204 to 206,Cc1ccccc1CNc1ccc2[nH]c(=O)[nH]c2c1
13,163 to 165,COc1coc(CO)cc1=O
14,181 to 183,O=S(=O)(c1ccc2c(c1)NCC2)N1CCCC1
15,114 to 116,NC(=O)Cc1cccc(O)c1
16,122 to 124,CC(=O)c1cccc(S(=O)(=O)N2CCC(C(=O)O)CC2)c1
17,92 to 94,S=C1CCCCN1
18,198 to 200,O=C(O)c1nc(-c2ccccc2)oc1C1CC1
19,39 to 41,CCc1nc(N)no1
20,149 to 151,COc1cc(C(=O)O)ccc1OCc1ccccn1
21,184 to 186,Cc1ccc(N2CC(C(=O)O)CCC2=O)cc1C (stereo not drawn)
22,19 to 21,Cc1cccc([N+](=O)[O-])c1F
23,104 to 106,NS(=O)(=O)c1ccc(Cl)cc1F
24,107 to 109,O=C1NCc2ccccc2N1CCO
